{
  "source": "PubChem BioAssay AID2060600",
  "about": "(Molecular Pharmacology Branch, DTP, NCI, 2025)",
  "tested_on": "996289-038-R-J1-PDC complex spheroid viability",
  "test": "Anticancer human tumor 996289-038-R-J1-PDC patient-derived colon adenocarcinoma cell line growth inhibition [CLK]",
  "conditions": "for viability, T/C: stronger effect = lower value",
  "source_text": "A high-throughput screen of multi-cell type tumor spheroids was designed to identify active combinations of […] and targeted small molecules. Complex spheroids include a stromal component modeled by human endothelial cells (HUVEC) and fibroblasts modeled by human mesenchymal stem cells (MSCs). The concentration ranges selected for each drug and investigational agent were based upon clinically achievable concentrations if the clinical Cmax of the agent was known.\nCompounds. The drugs and investigational agents: cirtuvivint (SM08502; NSC835563), CC-671 (NSC850746), vemurafenib (NSC761431), tapotoclax (NSC804041), sotorasib (NSC818433), adagrasib (NSC831453), MRTX-1133 (NSC836407), BAY2416964 (NSC825713), copanlisib (NSC816437), inavolisib (NSC800729), abemaciclib (NSC768073), osimertinib (NSC779217), entinostat (NSC756642), eltanexor (KPT-8602, NSC794443), venetoclax (NSC766270), ceralasertib (NSC777638), bortezomib (NSC756655), olaparib (NSC753686), talazoparib (NSC767125), alisertib (NSC759677), peposertib (NSC802822), gemcitabine (NSC613327), 5-fluorouracil (NSC19893), SN-38 (NSC673596), oxaliplatin (NSC266046), paclitaxel (NSC125973), and doxorubicin (NSC123127), were obtained from the National Cancer Institute (NCI) Developmental Therapeutics Program Chemical Repository. The FDA-approved anticancer drug set is available from the Developmental Therapeutics Program at https://dtp.cancer.gov/organization/dscb/obtaining/available plates.htm. […] The stock solutions were prepared in dimethyl sulfoxide (DMSO, Sigma-Aldrich, St. Louis, MO, cat. D2650), except for the platinum complexes which were prepared in saline (Quality Biological, Gaithersburg, MD, cat. 114-055-101), at 800-fold the tested concentration and stored at -70 degrees C prior to their use. All drugs and investigational agents were tested over a range starting from a high concentration at or near the clinical Cmax and decreasing in half-log increments. If the clinical Cmax for an agent had not been determined, the highest concentration tested was 10 microM.\nCell Culture. All cells were maintained in an incubator at 37 degrees C and 5% CO2 with 95% humidity. The PDC lines were cultured according to standard operating procedures established by the NCI PDMR. Briefly, all PDCs were thawed and cultured in Matrigel-coated flasks prepared with a working solution of 1X Ham's F-12 nutrient mix, without supplementation (Invitrogen, Waltham, MA, cat. 11765054), 100 U/mL penicillin-streptomycin (Invitrogen, cat. 15140122), and 2.5% Matrigel (Corning Inc., Corning, NY, cat. 354248) for the first three passages. The 947758-054-R-J2-PDC line was cultured in 6B/Colon 1A media, which includes advanced DMEM/F-12 (Thermo Fisher Scientific, cat. 12634028), 10 mM HEPES (Thermo Fisher Scientific, cat. 15630080), 1X GlutaMAX supplement (Thermo Fisher Scientific, cat. 35050061), 0.1 mg/mL primocin (InvivoGen, cat. ant-pm-2), 10% defined fetal bovine serum, heat inactivated (HyClone Laboratories Inc., cat. SH30070.03HI), 1.25 mM N-Acetyl-L-cysteine (Sigma-Aldrich, cat. A9165), 10 mM nicotinamide (Sigma-Aldrich, cat. N0636), 1X B-27 supplement (Thermo Fisher Scientific, cat. 17504044), 1X N-2 supplement (Thermo Fisher Scientific, cat. 17502048), and 10 microM Y-27632 dihydrochloride (Tocris Bioscience, cat. 1254). The 876862-298-R-J1-PDC was cultured in 6E media, which includes all 6B/Colon 1A media components plus 50% L-WRN conditioned media (ATCC, cat. CRL-3276), 50 ng/mL recombinant human EGF recombinant protein (hEGF; Thermo Fisher Scientific, cat. PHG0311), 10 ng/mL recombinant human fibroblast growth factor 10 (hGFG-10; PeproTech, cat. 100-26), 1 ng/mL recombinant human fibroblast growth factor 2 (hFGF-2; PeproTech, cat. 100-18B), and 1 µM prostaglandin E2 (PGE2; Tocris, cat. 2296). The 227483-062-R1-J1-PDC line was cultured in Panc media, containing all 6E components except hFGF-2, with the addition of 500 nM SB-431542 (Selleckchem, cat. S1067) and 10 nM gastrin (Tocris, cat. 3006). […]",
  "note": "pIC50: −log10 of the molar value. Where “and” joins values, the source holds several entries; their conditions need not be identical. Equal values may be shown once.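 Also: spheroids exposed to the agents for 7 days before readout.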",
  "data": [
    {"smiles": "CC(=O)O[C@H]1C(=O)[C@@]2(C)[C@H]([C@H](OC(=O)c3ccccc3)[C@]3(O)C[C@H](OC(=O)[C@H](O)[C@@H](NC(=O)c4ccccc4)c4ccccc4)C(C)=C1C3(C)C)[C@]1(OC(C)=O)CO[C@@H]1C[C@@H]2O", "values": [
      {"measurement": "viability, T/C", "setting": "compound 0.0316 µM", "result": "94.2% and 106%"},
      {"measurement": "viability, T/C", "setting": "compound 0.1 µM", "result": "85.8% and 89.7%"},
      {"measurement": "viability, T/C", "setting": "compound 0.316 µM", "result": "68.7% and 72.4%"},
      {"measurement": "viability, T/C", "setting": "compound 1 µM", "result": "59.8% and 63.7%"},
      {"measurement": "viability, T/C", "setting": "compound 3.16 µM", "result": "58.6% and 73%"},
      {"measurement": "viability, T/C", "setting": "compound 10 µM", "result": "61.5% and 67.2%"},
      {"measurement": "pIC50", "setting": "curve of compound", "result": "< 5.00"}
    ]},
    {"smiles": "COc1ccc([C@@H](O)c2cc(-c3ncnc4cc(N5CCOCC5)ccc34)c(F)cc2Cl)nn1", "values": [
      {"measurement": "viability, T/C", "setting": "compound 0.0316 µM", "result": 102, "unit": "%"},
      {"measurement": "viability, T/C", "setting": "compound 0.1 µM", "result": "92.7% and 88.9%"},
      {"measurement": "viability, T/C", "setting": "compound 0.316 µM", "result": "101% and 90.7%"},
      {"measurement": "viability, T/C", "setting": "compound 1 µM", "result": "93.3% and 87.7%"},
      {"measurement": "viability, T/C", "setting": "compound 3.16 µM", "result": "77.5% and 79.5%"},
      {"measurement": "viability, T/C", "setting": "compound 10 µM", "result": "50.1% and 52.1%"},
      {"measurement": "pIC50", "setting": "curve of compound", "result": "< 5.00"}
    ]},
    {"smiles": "COc1cccc2c1C(=O)c1c(O)c3c(c(O)c1C2=O)CC(O)(C(=O)CO)CC3OC1CC(N)C(O)C(C)O1", "note": "(stereo not drawn)", "values": [
      {"measurement": "viability, T/C", "setting": "compound 0.0316 µM", "result": "100% and 103%"},
      {"measurement": "viability, T/C", "setting": "compound 0.1 µM", "result": "87.1% and 86.2%"},
      {"measurement": "viability, T/C", "setting": "compound 0.316 µM", "result": "76.5% and 79.6%"},
      {"measurement": "viability, T/C", "setting": "compound 1 µM", "result": "59.4% and 62.6%"},
      {"measurement": "viability, T/C", "setting": "compound 3.16 µM", "result": "49% and 51.9%"},
      {"measurement": "viability, T/C", "setting": "compound 10 µM", "result": "35.5% and 36.7%"},
      {"measurement": "pIC50", "setting": "curve of compound", "result": "5.58 and 5.48"}
    ]},
    {"smiles": "C=CC(=O)N1CCN(c2nc(=O)n(-c3c(C)ccnc3C(C)C)c3nc(-c4c(O)cccc4F)c(F)cc23)C(C)C1", "note": "(stereo not drawn) + CN1CCN(c2cc(C(=O)Nc3cc4cc(-c5cnn(C)c5)ccc4cn3)ccn2)CC1", "values": [
      {"measurement": "pIC50", "setting": "curve of first compound, second compound 0.0316 µM", "result": "< 5.00"},
      {"measurement": "pIC50", "setting": "curve of first compound, second compound 0.1 µM", "result": "< 5.00"},
      {"measurement": "pIC50", "setting": "curve of first compound, second compound 0.316 µM", "result": "< 5.00"},
      {"measurement": "pIC50", "setting": "curve of first compound, second compound 1 µM", "result": "> 7.50"},
      {"measurement": "pIC50", "setting": "curve of first compound, second compound 3.16 µM", "result": "> 7.50"},
      {"measurement": "pIC50", "setting": "curve of first compound, second compound 10 µM", "result": "> 7.50"},
      {"measurement": "viability, T/C", "setting": "second compound 0.0316 µM, first compound 0.0316 µM", "result": 112, "unit": "%"},
      {"measurement": "viability, T/C", "setting": "second compound 0.0316 µM, first compound 0.1 µM", "result": 111, "unit": "%"},
      {"measurement": "viability, T/C", "setting": "second compound 0.0316 µM, first compound 0.316 µM", "result": 111, "unit": "%"},
      {"measurement": "viability, T/C", "setting": "second compound 0.0316 µM, first compound 1 µM", "result": 104, "unit": "%"},
      {"measurement": "viability, T/C", "setting": "second compound 0.0316 µM, first compound 3.16 µM", "result": 114, "unit": "%"},
      {"measurement": "viability, T/C", "setting": "second compound 0.0316 µM, first compound 10 µM", "result": 109, "unit": "%"},
      {"measurement": "viability, T/C", "setting": "second compound 0.1 µM, first compound 0.0316 µM", "result": 97.5, "unit": "%"},
      {"measurement": "viability, T/C", "setting": "second compound 0.1 µM, first compound 0.1 µM", "result": 102, "unit": "%"},
      {"measurement": "viability, T/C", "setting": "second compound 0.1 µM, first compound 0.316 µM", "result": 91.6, "unit": "%"},
      {"measurement": "viability, T/C", "setting": "second compound 0.1 µM, first compound 1 µM", "result": 103, "unit": "%"},
      {"measurement": "viability, T/C", "setting": "second compound 0.1 µM, first compound 3.16 µM", "result": 102, "unit": "%"},
      {"measurement": "viability, T/C", "setting": "second compound 0.1 µM, first compound 10 µM", "result": 99.3, "unit": "%"},
      {"measurement": "viability, T/C", "setting": "second compound 0.316 µM, first compound 0.0316 µM", "result": 80.5, "unit": "%"},
      {"measurement": "viability, T/C", "setting": "second compound 0.316 µM, first compound 0.1 µM", "result": 73.1, "unit": "%"},
      {"measurement": "viability, T/C", "setting": "second compound 0.316 µM, first compound 0.316 µM", "result": 74.2, "unit": "%"},
      {"measurement": "viability, T/C", "setting": "second compound 0.316 µM, first compound 1 µM", "result": 82.5, "unit": "%"},
      {"measurement": "viability, T/C", "setting": "second compound 0.316 µM, first compound 3.16 µM", "result": 85.3, "unit": "%"},
      {"measurement": "viability, T/C", "setting": "second compound 0.316 µM, first compound 10 µM", "result": 77.7, "unit": "%"},
      {"measurement": "viability, T/C", "setting": "second compound 1 µM, first compound 0.0316 µM", "result": 8.05, "unit": "%"},
      {"measurement": "viability, T/C", "setting": "second compound 1 µM, first compound 0.1 µM", "result": 7.07, "unit": "%"},
      {"measurement": "viability, T/C", "setting": "second compound 1 µM, first compound 0.316 µM", "result": 9.28, "unit": "%"},
      {"measurement": "viability, T/C", "setting": "second compound 1 µM, first compound 1 µM", "result": 8.41, "unit": "%"},
      {"measurement": "viability, T/C", "setting": "second compound 1 µM, first compound 3.16 µM", "result": 10.3, "unit": "%"},
      {"measurement": "viability, T/C", "setting": "second compound 1 µM, first compound 10 µM", "result": 6.56, "unit": "%"},
      {"measurement": "viability, T/C", "setting": "second compound 3.16 µM, first compound 0.0316 µM", "result": 1.21, "unit": "%"},
      {"measurement": "viability, T/C", "setting": "second compound 3.16 µM, first compound 0.1 µM", "result": 1.63, "unit": "%"},
      {"measurement": "viability, T/C", "setting": "second compound 3.16 µM, first compound 0.316 µM", "result": 1, "unit": "%"},
      {"measurement": "viability, T/C", "setting": "second compound 3.16 µM, first compound 1 µM", "result": 1.24, "unit": "%"},
      {"measurement": "viability, T/C", "setting": "second compound 3.16 µM, first compound 3.16 µM", "result": 1.69, "unit": "%"},
      {"measurement": "viability, T/C", "setting": "second compound 3.16 µM, first compound 10 µM", "result": 1.89, "unit": "%"},
      {"measurement": "viability, T/C", "setting": "second compound 10 µM, first compound 0.0316 µM", "result": 0.33, "unit": "%"},
      {"measurement": "viability, T/C", "setting": "second compound 10 µM, first compound 0.1 µM", "result": 1.03, "unit": "%"},
      {"measurement": "viability, T/C", "setting": "second compound 10 µM, first compound 0.316 µM", "result": 0.3, "unit": "%"},
      {"measurement": "viability, T/C", "setting": "second compound 10 µM, first compound 1 µM", "result": 0.75, "unit": "%"},
      {"measurement": "viability, T/C", "setting": "second compound 10 µM, first compound 3.16 µM", "result": 0.42, "unit": "%"},
      {"measurement": "viability, T/C", "setting": "second compound 10 µM, first compound 10 µM", "result": 1.33, "unit": "%"}
    ]}
  ]
}
